In the supplement of paper PMC10307832:

Columns and labels:
Experiment in all cases: relative viability (nuclei count vs DMSO), 5 days (fraction); higher = more cells survive
EMC-BAC-2 = system: EMC-BAC-2
Method in brief: (§1)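 A single step with final 0.05% Triton X-100, 1% formaldehyde and 1 ug/ml Hoechst fixed the cells and stained nuclei 5 days after treatment. Lung cancer cell lines in 1536-well plates had been treated by pin tool the day after seeding with one drug alone or a fixed anchor-drug dose plus five library-drug doses (not always all listed) in √10 steps, and nuclei were counted on 4× images. Relative viability is the ratio of nuclei in treated wells to nuclei in vehicle wells, taken as the median of duplicate plates.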

NCI-H23 = system: NCI-H23
Method in brief: as §1

NCI-H1915 = system: NCI-H1915
Method in brief: as §1

HOP-62 = system: HOP-62
Method in brief: as §1

NCI-H460 = system: NCI-H460
Method in brief: as §1

CAL-12T = system: CAL-12T
Method in brief: as §1

LCLC-103H = system: LCLC-103H
Method in brief: as §1

NCI-H1755 = system: NCI-H1755
Method in brief: as §1

NCI-H727 = system: NCI-H727
Method in brief: as §1

A-427 = system: A-427
Method in brief: as §1

NCI-H1792 = system: NCI-H1792
Method in brief: as §1

HCC-827 = system: HCC-827
Method in brief: as §1

SW 1573 = system: SW 1573
Method in brief: as §1

SK-LU-1 = system: SK-LU-1
Method in brief: as §1

HARA = system: HARA
Method in brief: as §1

NCI-H2009 = system: NCI-H2009
Method in brief: as §1

HCC-366 = system: HCC-366
Method in brief: as §1

COR-L 105 = system: COR-L 105
Method in brief: as §1

NCI-H2228 = system: NCI-H2228
Method in brief: as §1

NCI-H1437 = system: NCI-H1437
Method in brief: as §1

O=c1cc(-c2cccc3c2Sc2ccccc2S3)oc(N2CCOCC2)c1 + CC(C)C[C@H](NC(=O)[C@H](Cc1ccccc1)NC(=O)c1cnccn1)B(O)O [Bortezomib] (partner 0.002 µM) showed a relative viability (EMC-BAC-2; first compound 0.08 µM) of 1.03, a relative viability (EMC-BAC-2; first compound 0.253 µM) of 1.18 and a relative viability (EMC-BAC-2; first compound 0.8 µM) of 1.1. For the same molecule, the relative viability (EMC-BAC-2; first compound 2.53 µM) was 1.03, the relative viability (EMC-BAC-2; first compound 8 µM) was 1.1 and the relative viability (NCI-H23; first compound 0.08 µM) was 0.948. The relative viability (NCI-H23; first compound 0.253 µM) was 1.16, the relative viability (NCI-H23; first compound 0.8 µM) was 1.25 and the relative viability (NCI-H23; first compound 2.53 µM) was 0.914. For the same molecule, the relative viability (NCI-H23; first compound 8 µM) was 1.09, the relative viability (NCI-H1915; first compound 0.08 µM) was 1.07 and the relative viability (NCI-H1915; first compound 0.253 µM) was 1.03. The relative viability (NCI-H1915; first compound 0.8 µM) was 1.09, the relative viability (NCI-H1915; first compound 2.53 µM) was 0.974 and the relative viability (NCI-H1915; first compound 8 µM) was 1.16. For the same molecule, the relative viability (HOP-62; first compound 0.08 µM) was 0.734, the relative viability (HOP-62; first compound 0.253 µM) was 1.27 and the relative viability (HOP-62; first compound 0.8 µM) was 0.735. The relative viability (HOP-62; first compound 2.53 µM) was 0.713, the relative viability (HOP-62; first compound 8 µM) was 1.08 and the relative viability (NCI-H460; first compound 0.08 µM) was 1.36. The relative viability (NCI-H460; first compound 0.8 µM) was 1.12, the relative viability (NCI-H460; first compound 2.53 µM) was 1.02 and the relative viability (NCI-H460; first compound 8 µM) was 1.87. It also gave a relative viability (CAL-12T; first compound 0.08 µM) of 0.716, a relative viability (CAL-12T; first compound 0.253 µM) of 0.945 and a relative viability (CAL-12T; first compound 0.8 µM) of 1.02. It also gave a relative viability (CAL-12T; first compound 2.53 µM) of 0.98, a relative viability (CAL-12T; first compound 8 µM) of 1.05 and a relative viability (LCLC-103H; first compound 0.08 µM) of 1.16. The relative viability (LCLC-103H; first compound 0.253 µM) was 1.18, the relative viability (LCLC-103H; first compound 0.8 µM) was 1.08 and the relative viability (LCLC-103H; first compound 2.53 µM) was 1.14. It also gave a relative viability (LCLC-103H; first compound 8 µM) of 1.37, a relative viability (NCI-H1755; first compound 0.08 µM) of 0.973 and a relative viability (NCI-H1755; first compound 0.253 µM) of 1.09. For the same molecule, the relative viability (NCI-H1755; first compound 0.8 µM) was 1.01, the relative viability (NCI-H1755; first compound 2.53 µM) was 1.01 and the relative viability (NCI-H1755; first compound 8 µM) was 0.941. It also gave a relative viability (NCI-H727; first compound 0.253 µM) of 1.1, a relative viability (NCI-H727; first compound 2.53 µM) of 0.66 and a relative viability (NCI-H727; first compound 8 µM) of 0.972. It also gave a relative viability (A-427; first compound 0.08 µM) of 1.09, a relative viability (A-427; first compound 0.253 µM) of 0.977 and a relative viability (A-427; first compound 0.8 µM) of 0.999. It also gave a relative viability (A-427; first compound 2.53 µM) of 0.931, a relative viability (A-427; first compound 8 µM) of 1.03 and a relative viability (NCI-H1792; first compound 0.253 µM) of 1.4. The relative viability (NCI-H1792; first compound 0.8 µM) was 1.05, the relative viability (NCI-H1792; first compound 2.53 µM) was 0.904 and the relative viability (NCI-H1792; first compound 8 µM) was 1.27. The relative viability (HCC-827; first compound 0.08 µM) was 0.962, the relative viability (HCC-827; first compound 0.253 µM) was 0.96 and the relative viability (HCC-827; first compound 0.8 µM) was 0.974. It also gave a relative viability (HCC-827; first compound 2.53 µM) of 0.873, a relative viability (HCC-827; first compound 8 µM) of 1.11 and a relative viability (SW 1573; first compound 0.08 µM) of 0.976. For the same molecule, the relative viability (SW 1573; first compound 0.253 µM) was 1.13, the relative viability (SW 1573; first compound 0.8 µM) was 1.09 and the relative viability (SW 1573; first compound 2.53 µM) was 1.05. It also gave a relative viability (SW 1573; first compound 8 µM) of 1.09, a relative viability (SK-LU-1; first compound 0.08 µM) of 1.12 and a relative viability (SK-LU-1; first compound 0.253 µM) of 1.18. It also gave a relative viability (SK-LU-1; first compound 0.8 µM) of 1.16, a relative viability (SK-LU-1; first compound 2.53 µM) of 1.2 and a relative viability (SK-LU-1; first compound 8 µM) of 1.91. The relative viability (HARA; first compound 0.08 µM) was 1.09, the relative viability (HARA; first compound 0.253 µM) was 1.37 and the relative viability (HARA; first compound 0.8 µM) was 0.926. For the same molecule, the relative viability (HARA; first compound 2.53 µM) was 0.921, the relative viability (HARA; first compound 8 µM) was 1.24 and the relative viability (NCI-H2009; first compound 0.08 µM) was 0.936. The relative viability (NCI-H2009; first compound 0.253 µM) was 1.1, the relative viability (NCI-H2009; first compound 0.8 µM) was 0.952 and the relative viability (NCI-H2009; first compound 2.53 µM) was 0.871. For the same molecule, the relative viability (NCI-H2009; first compound 8 µM) was 0.795, the relative viability (HCC-366; first compound 0.08 µM) was 1.09 and the relative viability (HCC-366; first compound 0.253 µM) was 1.65. It also gave a relative viability (HCC-366; first compound 0.8 µM) of 1.12, a relative viability (HCC-366; first compound 2.53 µM) of 1.03 and a relative viability (HCC-366; first compound 8 µM) of 1.28. It also gave a relative viability (COR-L 105; first compound 0.08 µM) of 0.669, a relative viability (COR-L 105; first compound 0.253 µM) of 0.715 and a relative viability (COR-L 105; first compound 0.8 µM) of 0.741. The relative viability (COR-L 105; first compound 2.53 µM) was 0.795, the relative viability (COR-L 105; first compound 8 µM) was 0.733 and the relative viability (NCI-H2228; first compound 0.08 µM) was 0.965. It also gave a relative viability (NCI-H2228; first compound 0.253 µM) of 1.16, a relative viability (NCI-H2228; first compound 0.8 µM) of 1.19 and a relative viability (NCI-H2228; first compound 2.53 µM) of 0.982. The relative viability (NCI-H2228; first compound 8 µM) was 1.23, the relative viability (NCI-H1437; first compound 0.08 µM) was 0.51 and the relative viability (NCI-H1437; first compound 0.253 µM) was 0.626. The relative viability (NCI-H1437; first compound 0.8 µM) was 0.473, the relative viability (NCI-H1437; first compound 2.53 µM) was 0.555 and the relative viability (NCI-H1437; first compound 8 µM) was 0.543.
